According to US20230085307A1, “PYRIDAZINONE COMPOUND AND HERBICIDE” (NISSAN CHEMICAL CORPORATION, priority 2019, published 2023):

Legend:
late watergrass [1] = assay: Test Example 1: herbicidal activity, application before weed generation under submerged conditions (Table 16, symbol A); format: in vivo, late watergrass (Echinochloa oryzicola); details: for Herbicidal effect on A: late watergrass (grade 0-5): 320 g/ha applied herbicide
Outline: (§1)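 Submerged Wagner pots (alluvial soil, 4 cm water) sown with weed seeds and planted with 2.5-leaf rice seedlings; emulsifiable concentrate diluted in water applied to water surface on sowing day. Held in greenhouse at 25-30 °C; injury scored 0-5 by herbicidal rate after three weeks.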

Japanese bulrush [2] = assay: Test Example 1: herbicidal activity, application before weed generation under submerged conditions (Table 16, symbol B); format: in vivo, Japanese bulrush (Schoenoplectus juncoides); details: for Herbicidal effect on B: Japanese bulrush (grade 0-5): 320 g/ha applied herbicide
Outline: as §1

oval-leafed pondweed [3] = assay: Test Example 1: herbicidal activity, application before weed generation under submerged conditions (Table 16, symbol C); format: in vivo, oval-leafed pondweed (Monochoria vaginalis); details: for Herbicidal effect on C: oval-leafed pondweed (grade 0-5): 320 g/ha applied herbicide
Outline: as §1

late watergrass [4] = assay: Test Example 2: herbicidal activity, application during weed generation under submerged conditions (Table 17, symbol A); format: in vivo, late watergrass (Echinochloa oryzicola); details: for herbicidal effect rating, A: late watergrass: AAH 320 g/ha, application during weed generation, submerged conditions; for herbicidal effect grade, A: late watergrass: application during weed generation under submerged conditions
Outline: (§2)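 Herbicide emulsion, diluted with water to the chosen amount, is applied onto 4 cm floodwater over alluvial soil where the weeds were co-sown and raised at 25–30° C. Application timing: 1–2 leaves. Assessment: three weeks afterwards.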

Japanese bulrush [5] = assay: Test Example 2: herbicidal activity, application during weed generation under submerged conditions (Table 17, symbol B); format: in vivo, Japanese bulrush (Schoenoplectus juncoides); details: for herbicidal effect rating, B: Japanese bulrush: AAH 320 g/ha, application during weed generation, submerged conditions; for herbicidal effect grade, B: Japanese bulrush: application during weed generation under submerged conditions
Outline: as §2

oval-leafed pondweed [6] = assay: Test Example 2: herbicidal activity, application during weed generation under submerged conditions (Table 17, symbol C); format: in vivo, oval-leafed pondweed (Monochoria vaginalis); details: for herbicidal effect rating, C: oval-leafed pondweed: AAH 320 g/ha, application during weed generation, submerged conditions; for herbicidal effect grade, C: oval-leafed pondweed: application during weed generation under submerged conditions
Outline: as §2

barnyard grass = assay: Test Example 3: herbicidal effect by foliage application, Wagner pot (Table 18, symbol H); format: in vivo, barnyard grass (Echinochloa crus-galli); details: for herbicidal effect on H (barnyard grass), rating 0-5: 320 g/ha
Outline: (§3)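 Plants were sown in alluvial soil held under 0.1–0.5 cm standing water and grown 14 days in a greenhouse at 25–30 °C. An emulsifiable formulation, water-diluted to the set dose, was then sprayed onto the foliage, and effects were scored three weeks later using previously defined criteria.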

Chinese sprangletop = assay: Test Example 3: herbicidal effect by foliage application, Wagner pot (Table 18, symbol D); format: in vivo, chinese sprangletop (Leptochloa chinensis); details: for herbicidal effect on D (Chinese sprangletop), rating 0-5: 320 g/ha
Outline: as §3

rice flat sedge = assay: Test Example 3: herbicidal effect by foliage application, Wagner pot (Table 18, symbol E); format: in vivo, rice flat sedge (Cyperus iria); details: for herbicidal effect on E (rice flat sedge), rating 0-5: 320 g/ha
Outline: as §3

[7] = amount of applied herbicide 320 g/ha
[8] = amount of applied herbicide 438 g/ha

SMILES	Herbicidal effect on A: late watergrass (grade 0-5) (late watergrass [1])	Herbicidal effect on B: Japanese bulrush (grade 0-5) (Japanese bulrush [2])	Herbicidal effect on C: oval-leafed pondweed (grade 0-5) (oval-leafed pondweed [3])	herbicidal effect rating, A: late watergrass (late watergrass [4])	herbicidal effect rating, B: Japanese bulrush (Japanese bulrush [5])	herbicidal effect rating, C: oval-leafed pondweed (oval-leafed pondweed [6])	herbicidal effect on H: barnyard grass (barnyard grass; [7])	herbicidal effect on D: Chinese sprangletop (Chinese sprangletop; [7])	herbicidal effect on E: rice flat sedge (rice flat sedge; [7])	further results
C=CCCOc1ccc(-c2sc3ccccc3c2-c2c(O)c(C)nn(C)c2=O)cc1 [1-207]	5 (Herbicidal rate of 90% or more (almost completely withered))	5 (Herbicidal rate of 90% or more (almost completely withered))	5 (Herbicidal rate of 90% or more (almost completely withered))	5 (Herbicidal rate of 90% or more (almost completely withered))	4 (Herbicidal rate of 70% or more and less than 90%)	5 (Herbicidal rate of 90% or more (almost completely withered))				herbicidal effect on H (barnyard grass), rating 0-5 (barnyard grass): 5 (Herbicidal rate of 90% or more (almost completely withered)); herbicidal effect on D (Chinese sprangletop), rating 0-5 (Chinese sprangletop): 5 (Herbicidal rate of 90% or more (almost completely withered)); herbicidal effect on E (rice flat sedge), rating 0-5 (rice flat sedge): 4 (Herbicidal rate of 70% or more and less than 90%)
Cc1nn(C)c(=O)c(-c2c(-c3ccc(OCCOCCCl)cc3)sc3ccccc23)c1O [1-227]	5 (Herbicidal rate of 90% or more (almost completely withered))	5 (Herbicidal rate of 90% or more (almost completely withered))	5 (Herbicidal rate of 90% or more (almost completely withered))	4 (Herbicidal rate of 70% or more and less than 90%)	3 (Herbicidal rate of 40% or more and less than 70%)	3 (Herbicidal rate of 40% or more and less than 70%)				herbicidal effect on H (barnyard grass), rating 0-5 (barnyard grass): 5 (Herbicidal rate of 90% or more (almost completely withered)); herbicidal effect on D (Chinese sprangletop), rating 0-5 (Chinese sprangletop): 4 (Herbicidal rate of 70% or more and less than 90%); herbicidal effect on E (rice flat sedge), rating 0-5 (rice flat sedge): 4 (Herbicidal rate of 70% or more and less than 90%)
Cc1nn(C)c(=O)c(-c2c(-c3ccc([S+]([O-])CC(F)F)cc3)sc3ccc(F)cc23)c1O (stereo not drawn) [2-264]	4 (Herbicidal rate of 70% or more and less than 90%)	4 (Herbicidal rate of 70% or more and less than 90%)	3 (Herbicidal rate of 40% or more and less than 70%)	3 (Herbicidal rate of 40% or more and less than 70%)	3 (Herbicidal rate of 40% or more and less than 70%)	3 (Herbicidal rate of 40% or more and less than 70%)	5 (Herbicidal rate of 90% or more (almost completely withered))	3 (Herbicidal rate of 40% or more and less than 70%)	5 (Herbicidal rate of 90% or more (almost completely withered))	
Cc1nn(C)c(=O)c(-c2c(-c3ccc(C[S+](C)[O-])cc3)sc3ccc(F)cc23)c1O (stereo not drawn) [2-332]	2 (Herbicidal rate of 20% or more and less than 40%)	0 (Herbicidal rate of 5% or less (almost no effect))	0 (Herbicidal rate of 5% or less (almost no effect))	3 (Herbicidal rate of 40% or more and less than 70%)	0 (Herbicidal rate of 5% or less (almost no effect))	0 (Herbicidal rate of 5% or less (almost no effect))	5 (Herbicidal rate of 90% or more (almost completely withered))	3 (Herbicidal rate of 40% or more and less than 70%)	3 (Herbicidal rate of 40% or more and less than 70%)	
CCCC(=O)Oc1c(C)nn(C)c(=O)c1-c1c(-c2ccc(OC)c(Cl)c2)sc2ccc(F)cc12 [2-371]	3 (Herbicidal rate of 40% or more and less than 70%)	3 (Herbicidal rate of 40% or more and less than 70%)	4 (Herbicidal rate of 70% or more and less than 90%)	0 (Herbicidal rate of 5% or less (almost no effect))	3 (Herbicidal rate of 40% or more and less than 70%)	4 (Herbicidal rate of 70% or more and less than 90%)	4 (Herbicidal rate of 70% or more and less than 90%)	4 (Herbicidal rate of 70% or more and less than 90%)	4 (Herbicidal rate of 70% or more and less than 90%)	
CCCOc1ccc(-c2oc3ccc(C)cc3c2-c2c(OC(=O)CCC)c(C)nn(C)c2=O)cc1 [9-050]										Herbicidal effect, A: late watergrass (late watergrass [1]; [7]): 5 (Herbicidal rate of 90% or more (almost completely withered)); Herbicidal effect, B: Japanese bulrush (Japanese bulrush [2]; [7]): 5 (Herbicidal rate of 90% or more (almost completely withered)); Herbicidal effect, C: oval-leafed pondweed (oval-leafed pondweed [3]; [7]): 5 (Herbicidal rate of 90% or more (almost completely withered)); herbicidal effect grade, A: late watergrass (late watergrass [4]; [7]): 3 (Herbicidal rate of 40% or more and less than 70%); herbicidal effect grade, B: Japanese bulrush (Japanese bulrush [5]; [7]): 3 (Herbicidal rate of 40% or more and less than 70%); herbicidal effect grade, C: oval-leafed pondweed (oval-leafed pondweed [6]; [7]): 5 (Herbicidal rate of 90% or more (almost completely withered)); Herbicidal effect on H (barnyard grass), foliage application (barnyard grass; [7]): 4 (Herbicidal rate of 70% or more and less than 90%); Herbicidal effect on D (Chinese sprangletop), foliage application (Chinese sprangletop; [7]): 3 (Herbicidal rate of 40% or more and less than 70%); Herbicidal effect on E (rice flat sedge), foliage application (rice flat sedge; [7]): 5 (Herbicidal rate of 90% or more (almost completely withered))
CCCC(=O)Oc1c(C)nn(C)c(=O)c1-c1c(-c2ccc(OCC(C)C)cc2)oc2ccc(C)cc12 [9-052]										Herbicidal effect, A: late watergrass (late watergrass [1]; [7]): 5 (Herbicidal rate of 90% or more (almost completely withered)); Herbicidal effect, B: Japanese bulrush (Japanese bulrush [2]; [7]): 5 (Herbicidal rate of 90% or more (almost completely withered)); Herbicidal effect, C: oval-leafed pondweed (oval-leafed pondweed [3]; [7]): 4 (Herbicidal rate of 70% or more and less than 90%); herbicidal effect grade, A: late watergrass (late watergrass [4]; [7]): 3 (Herbicidal rate of 40% or more and less than 70%); herbicidal effect grade, B: Japanese bulrush (Japanese bulrush [5]; [7]): 3 (Herbicidal rate of 40% or more and less than 70%); herbicidal effect grade, C: oval-leafed pondweed (oval-leafed pondweed [6]; [7]): 4 (Herbicidal rate of 70% or more and less than 90%); Herbicidal effect on H (barnyard grass), foliage application (barnyard grass; [7]): 5 (Herbicidal rate of 90% or more (almost completely withered)); Herbicidal effect on D (Chinese sprangletop), foliage application (Chinese sprangletop; [7]): 0 (Herbicidal rate of 5% or less (almost no effect)); Herbicidal effect on E (rice flat sedge), foliage application (rice flat sedge; [7]): 4 (Herbicidal rate of 70% or more and less than 90%)
CCCC(=O)Oc1c(C)nn(C)c(=O)c1-c1c(-c2ccc(SC)cc2)oc2ccc(C)cc12 [9-056]										Herbicidal effect, A: late watergrass (late watergrass [1]; [8]): 5 (Herbicidal rate of 90% or more (almost completely withered)); Herbicidal effect, B: Japanese bulrush (Japanese bulrush [2]; [8]): 4 (Herbicidal rate of 70% or more and less than 90%); Herbicidal effect, C: oval-leafed pondweed (oval-leafed pondweed [3]; [8]): 4 (Herbicidal rate of 70% or more and less than 90%); herbicidal effect grade, A: late watergrass (late watergrass [4]; [8]): 3 (Herbicidal rate of 40% or more and less than 70%); herbicidal effect grade, B: Japanese bulrush (Japanese bulrush [5]; [8]): 3 (Herbicidal rate of 40% or more and less than 70%); herbicidal effect grade, C: oval-leafed pondweed (oval-leafed pondweed [6]; [8]): 4 (Herbicidal rate of 70% or more and less than 90%); Herbicidal effect on H (barnyard grass), foliage application (barnyard grass; [8]): 5 (Herbicidal rate of 90% or more (almost completely withered)); Herbicidal effect on D (Chinese sprangletop), foliage application (Chinese sprangletop; [8]): 3 (Herbicidal rate of 40% or more and less than 70%); Herbicidal effect on E (rice flat sedge), foliage application (rice flat sedge; [8]): 4 (Herbicidal rate of 70% or more and less than 90%)
